The values below come from patent US6787569B1, “Therapeutic guanidines” (Cambridge NeuroScience, Inc., priority 1994, dated 2004).

In data set [1] the test system is veratridine-induced 3H-glutamate release from brain nerve terminals (voltage-activated presynaptic Na channels). The data set can be described thus: Inhibition of veratridine-induced 3H-glutamate release, rapid superfusion of synaptosomes. As to conditions: 50 μM veratridine-induced release, rat brain synaptosomes; for % Inhibition of ^3H-Glu Rel @ 1 μM (*veratridine-induced glutamate release assay): 1 μM compound; for % Inhibition of ^3H-Glu Rel @ 3 μM (*veratridine-induced glutamate release assay): 3 μM compound. Format: biochemical, rat.

Data set [2] has as its system depolarization-induced 3H-glutamate release from brain nerve terminals. The data set can be described thus: Inhibition of 3H-glutamate release, high [K+] depolarization, rapid superfusion of synaptosomes. Format: biochemical. As to conditions: rat brain synaptosomes; for % Inhibition of ^3H-Glu Rel @ 3 μM: 3 μM compound; for % Inhibition of ^3H-Glu Rel @ 1 μM: 1 μM compound.

The target in data set [3] is Type II neuronal voltage-activated sodium channels (Rattus norvegicus, UniProt P04775). The data set can be described thus: cell-based.
Data set [4] concerns audiogenic seizures in DBA/2 mice. The data set can be described thus: In vivo anticonvulsant activity in the DBA/2 mouse model (audiogenic seizures). As to conditions: 30 minutes prior to auditory stimulus. Here is the method: Compounds were tested for their effectiveness in preventing seizures in DBA/2 mice which have a unique sensitivity to auditory stimulation. Exposure to loud high-frequency sounds can trigger seizure activity in these animals. This sensitivity develops from postnatal day 12 and peaks around day 21 and slowly diminishes as the animals mature. The unusual response to auditory stimulation in this strain of mouse is believed to be due to a combination of early myelination (causing an unusually low excitatory threshold) and delayed development of inhibitory mechanisms. Glutamate, the predominant excitatory neurotransmitter, has been implicated in this response. Blockade of glutamate receptors of the NMDA and AMPA subtypes, prevents audiogenic seizures in these mice. Compounds that block the release of glutamate should similarly act to prevent seizure activity, and may be therapeutic in other neurologic disorders such as stroke, which also involves glutamate-mediated damage.
Mice were injected intraperitoneally with the compound specified in Table V below or with vehicle control, 30 minutes prior to being placed in a bell jar and turning on the auditory stimulus (12 KHz sine wave at 110-120 db). Administered doses are specified in Table V as milligram of compound per kilogram bodyweight of mouse. The auditory stimulus was left on for 60 seconds and mice reactions were timed and recorded.
Percentage inhibition was determined with reference to vehicle controls.

Setting [5] is: veratridine (100 μM)-induced, tetrodotoxin-sensitive uptake, CHO cells expressing rat brain Type II Na channels, read-out: IC50, block of ^14C guanidinium uptake.

The melting point is the temperature, or range, at which the solid turns liquid. The term IC50 denotes the midpoint of a concentration-inhibition curve.

SMILES strings stand for the structures. Structures can show the parent of a compound that is named as a salt. Where two headings read alike, the source gives them in different places.

Sequence of Type II neuronal voltage-activated sodium channels (P04775 whole entry): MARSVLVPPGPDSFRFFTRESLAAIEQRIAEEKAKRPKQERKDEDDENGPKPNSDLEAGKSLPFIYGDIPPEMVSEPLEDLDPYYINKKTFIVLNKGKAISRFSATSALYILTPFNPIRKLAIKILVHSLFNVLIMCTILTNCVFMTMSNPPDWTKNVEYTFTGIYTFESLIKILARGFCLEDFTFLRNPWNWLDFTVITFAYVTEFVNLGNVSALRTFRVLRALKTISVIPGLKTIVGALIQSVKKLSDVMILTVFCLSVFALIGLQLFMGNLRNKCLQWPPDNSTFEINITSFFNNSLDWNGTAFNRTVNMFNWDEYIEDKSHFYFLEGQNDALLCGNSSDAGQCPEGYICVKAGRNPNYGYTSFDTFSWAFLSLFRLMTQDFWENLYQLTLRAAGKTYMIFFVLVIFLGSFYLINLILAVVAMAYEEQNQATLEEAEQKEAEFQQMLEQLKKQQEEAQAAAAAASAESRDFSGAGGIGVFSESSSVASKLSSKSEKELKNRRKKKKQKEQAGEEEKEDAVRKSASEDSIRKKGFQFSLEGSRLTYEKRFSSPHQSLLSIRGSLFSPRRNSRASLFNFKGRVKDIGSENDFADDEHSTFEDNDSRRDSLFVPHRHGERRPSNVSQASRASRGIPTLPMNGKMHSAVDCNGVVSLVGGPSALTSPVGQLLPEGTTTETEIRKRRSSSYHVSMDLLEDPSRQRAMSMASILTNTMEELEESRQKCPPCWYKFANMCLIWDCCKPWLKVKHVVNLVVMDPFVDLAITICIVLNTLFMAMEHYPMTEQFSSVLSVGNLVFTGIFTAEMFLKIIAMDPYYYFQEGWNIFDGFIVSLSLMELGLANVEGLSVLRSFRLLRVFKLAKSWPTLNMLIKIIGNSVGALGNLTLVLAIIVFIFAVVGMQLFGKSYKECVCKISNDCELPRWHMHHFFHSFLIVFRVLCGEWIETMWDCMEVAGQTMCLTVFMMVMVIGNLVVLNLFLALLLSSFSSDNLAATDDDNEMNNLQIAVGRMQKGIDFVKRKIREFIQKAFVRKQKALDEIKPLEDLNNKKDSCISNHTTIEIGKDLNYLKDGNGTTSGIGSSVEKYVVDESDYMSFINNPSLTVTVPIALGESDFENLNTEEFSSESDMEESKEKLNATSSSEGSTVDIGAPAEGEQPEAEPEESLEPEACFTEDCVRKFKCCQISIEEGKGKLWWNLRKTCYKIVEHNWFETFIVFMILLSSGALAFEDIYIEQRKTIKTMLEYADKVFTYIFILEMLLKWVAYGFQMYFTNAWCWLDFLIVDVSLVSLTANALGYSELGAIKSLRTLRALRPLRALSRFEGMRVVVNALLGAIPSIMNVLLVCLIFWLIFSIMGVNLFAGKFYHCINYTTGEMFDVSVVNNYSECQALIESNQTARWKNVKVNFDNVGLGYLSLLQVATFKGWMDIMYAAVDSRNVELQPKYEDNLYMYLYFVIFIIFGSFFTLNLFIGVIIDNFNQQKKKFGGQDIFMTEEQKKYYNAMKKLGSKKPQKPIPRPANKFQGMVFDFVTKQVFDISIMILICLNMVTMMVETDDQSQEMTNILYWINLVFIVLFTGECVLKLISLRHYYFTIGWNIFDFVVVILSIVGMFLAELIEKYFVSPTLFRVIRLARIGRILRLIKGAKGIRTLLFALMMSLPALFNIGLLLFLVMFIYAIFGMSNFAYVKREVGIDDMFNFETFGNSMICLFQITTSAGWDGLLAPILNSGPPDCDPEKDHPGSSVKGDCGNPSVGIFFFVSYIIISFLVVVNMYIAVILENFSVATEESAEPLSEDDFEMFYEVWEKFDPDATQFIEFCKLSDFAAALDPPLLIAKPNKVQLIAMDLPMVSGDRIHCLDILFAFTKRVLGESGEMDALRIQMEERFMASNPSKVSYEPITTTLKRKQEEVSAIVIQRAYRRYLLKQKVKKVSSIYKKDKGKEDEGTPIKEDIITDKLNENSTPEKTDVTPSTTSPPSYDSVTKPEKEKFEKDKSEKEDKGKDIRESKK

Take `CCC(C)c1ccc(N2CCCN(c3ccc(C(C)CC)cc3)C2=N)cc1` (centres unmarked) (as salt: HBr) [Example 8, N,N′-Bis-(4-sec-butylphenyl)-2-iminopyrimidazolidine.HBr]: the melting point was above 250 °C.

`CCC(C)c1ccc(N(Cc2ccc(C(C)(C)C)cc2)C(=N)N)cc1` (centres unmarked) (as salt: HCl) [Example 1, N-(4-sec-Butylphenyl)-N-(4-tert-butylbenzyl)guanidine.HCl] yielded a melting point of 177 to 178 °C.

`N=C(Nc1ccc2c3c(cccc13)CC2)NC(c1ccccc1)c1ccccc1` (as salt: HCl) [Example 3, N-(5-Acenaphthyl)-N′-benzhydrylguanidine.HCl] had a melting point of 225 to 227 °C.

`CCC(C)c1ccc(NC(=N)Nc2ccc(C(C)CC)cc2)cc1` (centres unmarked) (as salt: HCl) [Example 4, N,N′-bis(4-sec-Butylphenyl)guanidine.HCl] showed a melting point of 113 to 115 °C.

With `CCC(C)c1ccc(N(C)C(=N)N(C)c2ccc(C(C)CC)cc2)cc1` (centres unmarked) (as salt: HCl) [Example 6], the melting point lay within 65 to 66 °C.

On to `CC(C)(C)c1ccc(CN(C(=N)N)c2cccc(I)c2)cc1` (as salt: HCl) [Example 48, N-(3-Iodophenyl)-N-(4-tert-butylbenzyl)guanidine.HCl], for which the melting point was in the range of 271 to 272 °C.

In turn, `CC(C)(C)c1ccc(CN(C(=N)N)c2ccc(Cl)c3ccccc23)cc1` (as salt: HCl) [Example 49, N-(4-Chloro-1-naphthyl)-N-(4-tert-benzyl)guanidine.HCl] showed a melting point of 115 to 117 °C.

Turning to `CCC(C)c1ccc(NC(=N)N(C)c2ccc(C(C)CC)cc2)cc1.Cl` (centres unmarked) [Example 5, N,N′-bis(4-sec-Butylphenyl)-N-methyl guanidine.HCl], the “% Inhibition of ^3H-Glu Rel @ 1 μM (*veratridine-induced glutamate release assay)” value in data set [1] is recorded as 68* %.

Take `CCC(C)c1ccc(N2CCCN(c3ccc(C(C)CC)cc3)C2=N)cc1` (centres unmarked) [Example 8, N,N′-Bis-(4-sec-butylphenyl)-2-iminopyrimidazolidine.HBr]: in data set [2], the “% Inhibition of ^3H-Glu Rel @ 3 μM” value is recorded as 50%. The compound also gave an IC50 in data set [3] of 200 nM. Moreover, the “Audiogenic Response % Inhib.” value in data set [4] (2 mg/kg intraperitoneally) was 41%; in data set [4] (4 mg/kg intraperitoneally), 75%.

For `N=C(N=Cc1cccc2ccccc12)Nc1ccc2c3c(cccc13)CC2` [Example 10, N-(5-Acenaphthyl)-N′-[(1-naphthyl)-methylene]guanidine.CH3SO3H], in data set [1], the “% Inhibition of ^3H-Glu Rel @ 1 μM (*veratridine-induced glutamate release assay)” value was 24* % and the “% Inhibition of ^3H-Glu Rel @ 3 μM (*veratridine-induced glutamate release assay)” value is recorded as 71* %.

With `CCC(C)c1ccc(N(Cc2ccccc2)C(=N)N)cc1` (centres unmarked) [Example 17, N-(4-sec-Butylphenyl)-N-benzylguanidine], the melting point is 65 to 67 °C.

`CCC(C)c1ccc(N(C/C=C/c2ccccc2)C(=N)N)cc1.Cl` (stereo not drawn) [Example 23, N-(4-sec-Butylphenyl)-N-(trans-cinnamyl)guanidine.HCl]: in data set [1], the “% Inhibition of ^3H-Glu Rel @ 3 μM (*veratridine-induced glutamate release assay)” value is 33* %.

Consider `CCCCOc1ccc(N(Cc2ccc(C(C)(C)C)cc2)C(=N)N)cc1.Cl` [Example 24, N-(4-n-Butoxyphenyl)-N-(4-tert-butylbenzyl)guanidine.HCl], for which the “% Inhibition of ^3H-Glu Rel @ 1 μM (*veratridine-induced glutamate release assay)” value in data set [1] is listed as 62* %. In data set [3] (setting [5]), the IC50 amounted to 1800 nM.

`CC(C)(C)c1ccc(CN(C(=N)N)c2cccc(OC(F)(F)F)c2)cc1.Cl` [Example 27, N-(3-Trifluoromethoxyphenyl)-N-(4-tert-butylbenzyl)guanidine.HCl]: in data set [2], the “% Inhibition of ^3H-Glu Rel @ 1 μM” value is given as 24%. Further, the IC50 in data set [3] (setting [5]) is 1200 nM.

As to `Cl.N=C(Nc1ccc(OCc2ccccc2)cc1)Nc1cccc(OCc2ccccc2)c1` [Example 42, N-(3-Benzyloxyphenyl)-N′-(4-benzyloxyphenyl)guanidine.HCl], the “% Inhibition of ^3H-Glu Rel @ 0.3 μM” value in data set [2] (0.3 μM compound) was 54%. The “% Inhibition of ^3H-Glu Rel @ 1 μM” value in data set [2] was 90%. For the same compound, the “% Inhibition of ^3H-Glu Rel @ 3 μM (*veratridine-induced glutamate release assay)” value in data set [1] is 60* %. For the same compound, the IC50 in data set [3] (setting [5]) is 700 nM.

Consider `Cl.N=C(NCCCc1ccccc1)Nc1ccc2c3c(cccc13)CC2` [Example 43, N-(5-Acenaphthyl)-N′-(3-phenylpropyl)guanidine.HCl], for which, in data set [2], the “% Inhibition of ^3H-Glu Rel @ 3 μM” value amounted to 60%. In data set [1], the “% Inhibition of ^3H-Glu Rel @ 1 μM (*veratridine-induced glutamate release assay)” value was 43* %.

Take `CC(CNC(=N)Nc1ccc2c3c(cccc13)CC2)c1ccccc1.Cl` (centres unmarked) [Example 44, N-(5-Acenaphthyl)-N′-(2-methyl-2-phenylethyl)guanidine.HCl]: in data set [1], the “% Inhibition of ^3H-Glu Rel @ 1 μM (*veratridine-induced glutamate release assay)” value was 43* % and the “% Inhibition of ^3H-Glu Rel @ 3 μM (*veratridine-induced glutamate release assay)” value was 71* %.

With `CC(C)(C)c1ccc(CN(C(=N)N)c2cccc(I)c2)cc1` [Example 48, N-(3-Iodophenyl)-N-(4-tert-butylbenzyl)guanidine.HCl], the “% Inhibition of ^3H-Glu Rel @ 1 μM (*veratridine-induced glutamate release assay)” value in data set [1] is recorded as 23* %. For the same compound, the IC50 in data set [3] was 400 nM.

For the compound `CC(C)(C)c1ccc(CN(C(=N)N)c2ccc(Cl)c3ccccc23)cc1` [Example 49, N-(4-Chloro-1-naphthyl)-N-(4-tert-benzyl)guanidine.HCl], the “% Inhibition of ^3H-Glu Rel @ 1 μM (*veratridine-induced glutamate release assay)” value in data set [1] is listed as 32* %. Further, inhibition in data set [3] was half-maximal at 2200 nM (IC50).
